Results published in patent US20220249504A1, “LONGEVITY SIGNATURES AND THEIR APPLICATIONS” (The Brigham and Women's Hospital, Inc., priority 2019, published 2022).
Entries after “also recorded” stand apart in the source; their conditions may differ.

Experiments:
C57BL/6 mice [1] = experiment: Glucose tolerance in old C57BL/6 mice on compound diet; type: in vivo, mouse; conditions: old C57BL/6 mice at the dose given in diet (AZD-8055: 23-month-old, treated 2.5 months)
Protocol: 23-month-old mice were treated for 2.5 months prior to analyses.

C57BL/6 mice [2] = experiment: Frailty index of old C57BL/6 mice on compound diet; type: in vivo, mouse
Protocol: (§1) Briefly, 24-28 mice per intervention were used, with an approximately equal number of males and females. Mice were first assessed with regard to frailty index and gait speed, and then randomized to make sure the experimental and control groups had the same average frailty index and gait speed. Mice were then given a diet containing a compound of interest. […] Mice were monitored daily until they died. A separate cohort of old mice was assessed for frailty index and gait speed.
(§2) Briefly, 24-28 mice per intervention were used, with an approximately equal number of males and females. They were first assessed with regard to frailty index and gait speed, and then randomized to make sure the experimental and control groups had the same average frailty index and gait speed. Mice were then given a diet containing a compound of interest. […] Mice were monitored daily until they died. A separate cohort of old mice was assessed for frailty index and gait speed.

C57BL/6 mice [3] = experiment: Gait speed of old C57BL/6 mice on compound diet; type: in vivo, mouse; conditions: 31-month-old C57BL/6 male mice
Protocol: as §1, §2

C57BI/6 mice = experiment: Lifespan of old (2-year-old) C57BL/6 mice given a diet containing the compound; type: in vivo, mouse; conditions: C57BL/6 male mice, given late in life, ad libitum in diet (AZD-8055 20 mg/kg of food, LY294002 600 mg/kg, KU-0063794 10 mg/kg of diet)
Protocol: as §1
Interventions were predicted in a screen based on the gene expression longevity signatures that we developed. The predicted interventions were then verified for gene expression responses in human and mouse primary cell culture (hepatocytes) and in live mice (after mice were fed for 1 month with the diets containing these interventions). The interventions that passed these tests were further assessed for the effect on lifespan of 2-year-old C57BI/6 mice. Older mice (2-year-old) were chosen for this experiment in order to mimic the effect of giving interventions to human subjects in their second half of life.
as §2

mice = conditions: cited from earlier work; for Effect on lifespan in the ITP mouse cohort: at the concentrations used (Miller et al., 2011; Strong et al., 2013, 2016)
longevity signatures = experiment: GSEA-based association of publicly available hepatic gene expression datasets with longevity signatures; type: in vivo, mouse; conditions: for Association of hepatic gene expression changes with longevity signatures: public datasets (IL-6 injection GSE21060; SRT2104 in males GSE49000)
Source text: For interventions from publicly available sources (FIG. 7E (upper)), we downloaded them from GEO under the following accession numbers: GSE21060 (Ramadoss et al., 2010), GSE77082 (Alonso et al., 2017), GSE15891 (Baze et al., 2010), GSE11287 (Osburn et al., 2008), GSE49000 (Mercken et al., 2014), GSE10421 (Kautz et al., 2008) and GSE104234 (Rhoads et al., 2018). Data corresponding to Sirt6 overexpression (Kanfi et al., 2012) were downloaded via the link provided in the original paper. When running association test for the rhesus monkey data, we converted monkey genes to mouse orthologs using Ensembl BioMart platform. We preprocessed each dataset, performed quantile normalization and Entrez ID transformation and applied limma model for calculation of p-values, which were converted to log10(p-value) corrected by the sign of regulation as explained earlier.
To calculate statistical significance of obtained GSEA score, we performed permutation test where we randomly assigned genes to the lists of gene set maintaining their size. To get p-value of association between certain intervention and longevity signature, we calculated the frequency of real final GSEA score being bigger by absolute value than random final GSEA scores obtained as results of 3,000 permutations. To adjust for multiple comparisons, we performed Benjamini-Hochberg procedure. Resulted adjusted p-values were converted into significance scores as:
significance score=−log10(adj.pv)×sgn(GSEA score),
where adj. pv and GSEA score are BH adjusted p-value and final GSEA score, respectively. Heatmaps were colored based on values of significance scores. […]

sex-associated genes = experiment: Feminizing effect of lifespan-extending interventions on hepatic gene expression (RNAseq, UM-HET3 mice); conditions: females
Source text: Liver samples corresponding to lifespan-extending interventions for RNA-seq and metabolome analysis were taken at 6 and 12 months of age from male and female mice treated by drugs or exposed to caloric restriction (CR) diet from 4 months of age along with control mice, which were untreated littermate mice matched by age and sex.
In all cases, interventions continued until the animals were sacrificed. […] RNA was extracted from liver tissues with PureLink RNA Mini Kit as described in the protocol and passed to sequencing.
For samples corresponding to lifespan-extending interventions, paired-end sequencing with 100 bp read length was performed on illumine HiSeq2000 platform. […] Quality filtering and adapter removal were performed using Trimmomatic version 0.32.
When performing analysis of the feminizing effect, gene expression differences were identified between control males and females from UM-HET3 strains for each age group. […] The statistical significance of correlation between sex-associated differences and response to certain intervention (“feminizing effect”) was calculated using Spearman correlation test and adjusted for multiple comparisons with Benjamini-Hochberg procedure. When calculating correlation between response to certain intervention in specific age group (6 or 12 months) and female-associated differences, the latter were calculated using gene expression data for control males and females from the other age group (12 or 6 months, respectively). […]
Differences in the feminizing effect of interventions in certain age groups between males and females was tested by Spearman correlation test, applied to the difference in log2FC of gender-associated genes in response to the specified conditions between males and females, and female-associated differences based on the other age group, with the following Benjamini-Hochberg adjustment. Manhattan distance between male and female gene expression profiles was calculated for individual samples in a pairwise manner using intersection of sex-specific gene sets across age groups. […]

[4] = system: mouse liver gene expression; experiment: Meta-analysis: Spearman correlation between hepatic gene expression profiles of interventions; type: in vivo; conditions: for Correlation with the main cluster of interventions (defined by CR and GH deficiency): median Spearman correlation matrix
Source text: To identify signatures associated with lifespan extension and the effect of certain interventions, we expanded our data with publicly available datasets from Gene Expression Omnibus (GEO) (Edgar, 2002) and ArrayExpress (Kolesnikov et al., 2015) databases. For the analysis of signatures associated with certain interventions (CR, rapamycin, GH deficiency), we integrated available gene expression data obtained from liver of mice from healthy genetic strains on standard diets subjected to CR, rapamycin and mutations associated with GH deficiency (Ames dwarf mice, GHRKO, Little mice, Snell dwarf mice). […] Finally, for the analysis of signatures associated with the lifespan extension effect, we integrated datasets on interventions with available and reliable survival data corresponding to the same experimental design (sex, strain, dose, age when the intervention started). In total, our hepatic meta-analysis covered 17 different interventions presented in 77 control-intervention datasets from 22 different sources (including ours) (FIG. 3D). The same approach was used to obtain microarray data corresponding to white adipose tissue (WAT) (9 control-intervention datasets from 5 sources) and skeletal muscle (13 control-intervention datasets from 9 sources).
To aggregate data across different platforms and studies, we developed the following method. First, data within each study was preprocessed independently and log-transformed to conform to normal distribution if needed. Then, filtering of low-covered genes was performed with soft threshold. Then, all identifiers were mapped to Entrez ID gene format, and genes not detected in our RNAseq data were filtered out. […] Afterwards, samples within every study were normalized by quantile normalization and scaling, followed by multiplication by the certain value to make it on the same scale as RNAseq data with more natural interpretation. Finally, mean and standard error of logFC of every gene for every response to intervention was calculated together with p-value (along with Benjamini-Hochberg adjusted p-value) estimated by edgeR (Robinson et al., 2009) and limma (Ritchie et al., 2015) for RNAseq and microarrays datasets, respectively. […] Importantly, one study may include several datasets if several interventions or settings have been analyzed there, and sometimes, different interventions or doses share the same control samples. This may be a source of batch effect, which we removed during subsequent steps of the analysis.
To calculate correlations between interventions in unbiased way, we applied the following approach. For every pair of interventions, including comparison of intervention with itself, we examined all pairs of datasets from different sources. For each such pair we selected 250 genes consisting of 125 genes with the most significant expression change (with the lowest p-values) from each dataset and calculated Spearman correlation coefficient within the pair. We reiterated this algorithm and, as a result, for every pair of interventions obtained distribution of Spearman correlation coefficients, calculated between datasets from different sources. For CR and rapamycin, we visualized these distributions using violinplot. One-sample Mann-Whitney test and Benjamini-Hochberg adjustment were used to check if means of correlation coefficients are different from 0 with statistical significance. We declared correlation coefficient to be significant if adjusted p-value was smaller than 0.1.
For correlation matrix we employed median values of Spearman correlation coefficients. By filtering out comparisons of datasets from the same source, we removed possible batch effect and ended up with independent and unbiased comparison of interventions. However, as some interventions were presented only within the same source, we couldn't estimate unbiased correlation for such cases. This missing data was visualized by grey boxes. […]

[5] = datasets from different sources, 250 genes

COc1ccc(-c2ccc3c(N4CCOC[C@@H]4C)nc(N4CCOC[C@@H]4C)nc3n2)cc1CO [AZD-8055, 5-[2,4-bis[(3S)-3-methyl-4-morpholinyl]pyrido[2,3-d]pyrimidin-7-yl]-2-methoxy-benzenemethanol]
Effect on glucose tolerance (C57BL/6 mice [1]): does not lead to glucose intolerance; also recorded: did not compromise
Effect on frailty index (C57BL/6 mice [2]; old C57BL/6 mice, males and females): no effect

O=c1cc(N2CCOCC2)oc2c(-c3ccccc3)cccc12 [LY294002, 2-Morpholin-4-yl-8-phenylchromen-4-one]
Effect on gait speed (C57BL/6 mice [3]): improves
Effect on glucose tolerance (C57BL/6 mice [1]): No effect; also recorded: did not have a significant effect
Effect on frailty index (C57BL/6 mice [2]; 31-month-old C57BL/6 male mice): improves
Effect on lifespan (C57BI/6 mice): extends lifespan

Cc1nc(-c2cccnc2)sc1C(=O)Nc1ccccc1-c1cn2c(CN3CCOCC3)csc2n1 [SRT2104]
Increase in median and maximum lifespan (mice; male mice (Mercken et al., 2014b)): ~10%
Association with longevity signatures associated with the quantitative effect of lifespan extension (longevity signatures; males, public dataset): no consistent positive association
Association of hepatic gene expression changes with longevity signatures (longevity signatures): significant positive associations of these models in males with CR and signatures shared by lifespan-extending interventions

C[C@H]1O[C@H](O[C@H]2[C@H](O)[C@@H](O)[C@@H](O[C@H]3[C@H](O)[C@@H](O)C(O)O[C@@H]3CO)O[C@@H]2CO)[C@H](O)[C@@H](O)[C@@H]1N[C@H]1C=C(CO)[C@@H](O)[C@H](O)[C@H]1O (stereo partly drawn) [acarbose]
Feminizing effect (Spearman correlation with sex-associated gene expression differences) (sex-associated genes; 12-month-old): 0.19

CN(C)C(=N)N=C(N)N [metformin]
Correlation with CR at the level of gene expression (median Spearman correlation coefficient) [4, 5]: statistically significant positive correlations
Correlation with the main cluster of interventions (defined by CR and GH deficiency) [4]: week positive correlation
Effect on lifespan in the ITP mouse cohort (mice): did not increase lifespan

CO[C@H]1C[C@@H]2CC[C@@H](C)[C@@](O)(O2)C(=O)C(=O)N2CCCC[C@H]2C(=O)O[C@H]([C@H](C)C[C@@H]2CC[C@@H](O)[C@H](OC)C2)CC(=O)[C@H](C)/C=C(\C)[C@@H](O)[C@@H](OC)C(=O)[C@H](C)C[C@H](C)/C=C/C=C/C=C/1C [rapamycin]
Correlation of the intervention with itself across datasets (median Spearman correlation coefficient) [4, 5]: 0.088
Correlation with CR at the level of gene expression (median Spearman correlation coefficient) [4, 5]: −0.049
Feminizing effect (Spearman correlation with sex-associated gene expression differences) (sex-associated genes; 6-month-old): −0.14
Feminizing effect (Spearman correlation with sex-associated gene expression differences) (sex-associated genes; 12-month-old): −0.49

Oc1ccc(C=Cc2cc(O)cc(O)c2)cc1 [resveratrol]
Correlation with CR at the level of gene expression (median Spearman correlation coefficient) [4, 5]: statistically significant positive correlations
Correlation with the main cluster of interventions (defined by CR and GH deficiency) [4]: week positive correlation
Effect on lifespan in the ITP mouse cohort (mice): did not increase lifespan

interleukin-6: pro-inflammatory cytokine secreted by T cells and macrophages
Association of hepatic gene expression changes with longevity signatures (longevity signatures): significant negative association with all longevity signatures
